Patent publication US10301261B2, “Substituted indoles as modulators of ROR-gamma” (Vitae Pharmaceuticals, LLC, priority 2015, dated 2019)

Tests used:
[1] = target: recombinant RORγ Ligand Binding Domain (LBD) protein (Homo sapiens (Human), UniProt P51449); assay: Radio-Ligand RORγ Binding Assay (Assay 1); details: radio-ligand 25-hydroxy [26,27-3H]-cholesterol competition
Experimental: Radio-Ligand RORγ Binding Assay (Assay 1)
Compounds described herein were tested for ability to bind to RORγ in a cell-free competition assay with commercially available radio-ligand (RL), 25-hydroxy [26,27-^3H]-cholesterol (PerkinElmer, Cat. # NET674250UC), for a ligand binding site on a recombinant RORγ Ligand Binding Domain (LBD) protein expressed as a 6×His-Glutathione-S-Transferase (GST) fusion. […] The plate was shaken at 700 rpm for 20 min and incubated for 10 min at rt, after which 40 μL of poly-Lys YSi SPA beads (PerkinElmer, Cat. # RPNQ0010) were added to achieve 50 μg of the beads per well. The plate was incubated on an orbital shaker for 20 min and then for 10 min without agitation at rt. SPA signal for tritium beta radiation was registered on PerkinElmer Microbeta plate reader. […] The percent inhibition vs. concentration data were fit into a four-parameter model, and IC50 values were calculated from the fit as the concentrations corresponding to the inflection points on the dose-response curves. […]

[2] = target: full-length RORγt in Jurkat cells (Homo sapiens (Human), UniProt P51449); assay: RORγt 5×RORE Assay in Jurkat Cells (Assay 2); format: cell-based; details: RORγt 5×RORE Nanoluc reporter
Chain of full-length RORγt in Jurkat cells (P51449 other isoform, or with tags, fused parts or gaps): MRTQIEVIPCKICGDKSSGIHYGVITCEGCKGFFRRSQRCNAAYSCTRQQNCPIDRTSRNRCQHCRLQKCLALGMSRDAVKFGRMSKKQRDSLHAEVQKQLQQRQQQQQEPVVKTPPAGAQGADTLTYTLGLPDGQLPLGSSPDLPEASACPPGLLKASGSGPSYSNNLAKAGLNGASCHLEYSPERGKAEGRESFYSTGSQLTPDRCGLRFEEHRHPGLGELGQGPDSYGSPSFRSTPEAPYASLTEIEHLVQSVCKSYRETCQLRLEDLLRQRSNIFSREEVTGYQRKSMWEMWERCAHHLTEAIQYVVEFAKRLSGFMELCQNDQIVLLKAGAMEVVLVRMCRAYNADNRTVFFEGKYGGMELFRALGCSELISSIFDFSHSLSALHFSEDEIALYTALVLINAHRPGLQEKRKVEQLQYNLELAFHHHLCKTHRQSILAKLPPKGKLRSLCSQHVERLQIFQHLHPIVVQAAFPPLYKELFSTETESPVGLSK
Experimental: [formula] RORγt 5×RORE Assay in Jurkat Cells (Assay 2)
Compounds described herein were tested for RORγ inverse agonist activity in a cell-based, transcriptional activity assay. […] (Promega, Cat. # N1021) using KpnI and HindIII restriction sites. […] Tested compounds were added to the cells in the same media (final concentration of DMSO was 0.1% (v/v)), and the plates were incubated at 37° C./5% CO2 for 16-18 hrs. Luciferase activity in the conditioned supernatants was determined with NanoGlo® assay reagents (Promega, Cat.# N1130).

Chain of recombinant RORγ Ligand Binding Domain (LBD) protein (P51449 269-508): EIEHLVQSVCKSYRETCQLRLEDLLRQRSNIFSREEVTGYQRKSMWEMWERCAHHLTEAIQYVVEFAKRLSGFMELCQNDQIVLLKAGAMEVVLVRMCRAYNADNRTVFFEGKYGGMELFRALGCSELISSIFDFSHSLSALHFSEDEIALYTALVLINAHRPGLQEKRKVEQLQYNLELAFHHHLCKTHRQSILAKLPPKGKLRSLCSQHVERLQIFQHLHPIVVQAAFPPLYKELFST

Question: Which results are given for “1-ethyl-N-(4-(ethylsulfonyl)benzyl)-2-(((1s,4s)-4-(trifluoromethyl)cyclohexyl)methyl)-1H-indole-5-carboxamide [IN-17.2]”?
Answer: Ki [1]: < 100 nM; IC50 [2]: > 1000 nM

Question: How did the Ki [1] turn out when “1-ethyl-N-((5-(ethylsulfonyl)pyridin-2-yl)methyl)-2-(((1s,4s)-4-(trifluoromethyl)cyclohexyl)methyl)-1H-indole-5-carboxamide [IN-15.2]” was run?
Answer: The Ki was less than 100 nM.

Question: What about the IC50 [2] of the same compound?
Answer: The IC50 was greater than 1000 nM.

Question: For “1-ethyl-N-((R)-1-(4-(ethylsulfonyl)phenyl)-2-hydroxyethyl)-2-(((1s,4S)-4-(trifluoromethyl)cyclohexyl)methyl)-1H-indole-5-carboxamide [IN-16.2]”, which Ki [1] is on record?
Answer: Its Ki is less than 100 nM.

Question: What about the IC50 [2] of the same compound?
Answer: Its IC50 is greater than 1000 nM.

Question: Which Ki [1] does the source give for CCn1c(CC2CCC(C(F)(F)F)OC2)nc2cc(C(=O)NCc3ccc(S(=O)(=O)CC)cc3)ccc21 (single isomer, unassigned) [BE-56.1, 1-ethyl-N-(4-(ethylsulfonyl)benzyl)-2-((6-(trifluoromethyl)tetrahydro-2H-pyran-3-yl)methyl)-1H-benzo[d]imidazole-5-carboxamide] here?
Answer: Its Ki is 100 to 1000 nM.

Question: Which Ki [1] does the source give for CCn1c(CC2CCC(C(F)(F)F)OC2)nc2cc(C(=O)NCc3ccc(S(=O)(=O)CC)cc3)ccc21 (single isomer, unassigned) [BE-56.2, 1-ethyl-N-(4-(ethylsulfonyl)benzyl)-2-((6-(trifluoromethyl)tetrahydro-2H-pyran-3-yl)methyl)-1H-benzo[d]imidazole-5-carboxamide] here?
Answer: The Ki was 100 to 1000 nM.

Question: CCn1c(CC2CCC(C(F)(F)F)OC2)nc2cc(C(=O)NCc3ccc(S(=O)(=O)CC)cc3)ccc21 (single isomer, unassigned) [BE-56.3, 1-ethyl-N-(4-(ethylsulfonyl)benzyl)-2-((6-(trifluoromethyl)tetrahydro-2H-pyran-3-yl)methyl)-1H-benzo[d]imidazole-5-carboxamide] was tested. Which Ki [1] did it give?
Answer: Its Ki is 100 to 1000 nM.

Question: Which results are given for CCS(=O)(=O)c1ccc([C@H](CO)NC(=O)c2ccc3c(c2)nc(COC2CCC(C(F)(F)F)CC2)n3C2CC2)cc1 (single isomer, unassigned) [BE-71.1]?
Answer: Ki [1]: < 100 nM; IC50 [2]: < 100 nM

Question: How did the Ki [1] turn out when CCS(=O)(=O)c1ccc([C@H](CO)NC(=O)c2ccc3c(c2)nc(CO[C@H]2CC[C@H](C(F)(F)F)CC2)n3C2CC2)cc1 (single isomer, unassigned) [BE-71.2] was run?
Answer: Its Ki is less than 100 nM.

Question: And the IC50 [2]?
Answer: The IC50 was less than 100 nM.

Question: How did the Ki [1] turn out when CCS(=O)(=O)c1ccc(CNC(=O)c2cnc3c(c2)nc(C[C@H]2CC[C@H](C(F)(F)F)CC2)n3C2CC2)cc1 [AB-1.1, 3-cyclopropyl-N-(4-(ethylsulfonyl)benzyl)-2-(((1r,4r)-4-(trifluoromethyl)cyclohexyl)methyl)-3H-imidazo[4,5-b]pyridine-6-carboxamide] was run?
Answer: Its Ki is less than 100 nM.

Question: And the IC50 [2]?
Answer: The IC50 was less than 100 nM.

Question: Which results are given for CCS(=O)(=O)c1ccc(CNC(=O)c2cnc3c(c2)nc(C[C@H]2CC[C@@H](C(F)(F)F)CC2)n3C2CC2)cc1 [AB-1.2, 3-cyclopropyl-N-(4-(ethylsulfonyl)benzyl)-2-(((1s,4s)-4-(trifluoromethyl)cyclohexyl)methyl)-3H-imidazo[4,5-b]pyridine-6-carboxamide]?
Answer: Ki [1]: < 100 nM; IC50 [2]: > 1000 nM

Question: CS(=O)(=O)c1ccc(CNC(=O)c2cnc3c(c2)nc(Cc2ccc(C(F)(F)F)cc2)n3C2CC2)cc1 [AB-2, 3-cyclopropyl-N-(4-(methylsulfonyl)benzyl)-2-(4-(trifluoromethyl)benzyl)-3H-imidazo[4,5-b]pyridine-6-carboxamide] was tested. Which Ki [1] did it give?
Answer: The Ki was 100 to 1000 nM.

Question: For C=C(C)Cn1c(Cc2ccc(C(F)(F)F)cc2)cc2cc(C(=O)NCc3ccc(S(=O)(=O)CC)cc3)cnc21 [AI-3, N-(4-(ethylsulfonyl)benzyl)-1-(2-methylallyl)-2-(4-(trifluoromethyl)benzyl)-1H-pyrrolo[2,3-b]pyridine-5-carboxamide], which Ki [1] is on record?
Answer: The Ki was less than 100 nM.

Question: CCn1c(Oc2ccc(C(F)(F)F)cc2)nc2cc(C(=O)N[C@@H](CN(C)C)c3ccc(S(=O)(=O)CC)cc3)ccc21 [BE-10, (R)-N-(2-(dimethylamino)-1-(4-(ethylsulfonyl)phenyl)ethyl)-1-ethyl-2-(4-(trifluoromethyl)phenoxy)-1H-benzo[d]imidazole-5-carboxamide] was tested. Which Ki [1] did it give?
Answer: The Ki was 100 to 1000 nM.

Question: CCS(=O)(=O)c1ccc([C@@H](CO)NC(=O)c2ccc3c(c2)nc(C[C@H]2CC[C@H](C(F)(F)F)CC2)n3C2CC2)nc1 [BE-29, 1-cyclopropyl-N-((S)-1-(5-(ethylsulfonyl)pyridin-2-yl)-2-hydroxyethyl)-2-(((1r,4S)-4-(trifluoromethyl)cyclohexyl)methyl)-1H-benzo[d]imidazole-5-carboxamide] was tested. Which Ki [1] did it give?
Answer: Its Ki is greater than 1000 nM.

Question: How did the Ki [1] turn out when CCS(=O)(=O)c1ccc(CNC(=O)c2ccc3c(c2)nc(Cc2ccc(C(F)(F)F)cc2)n3C2CCC2)cc1 [BE-38, 1-cyclobutyl-N-(4-(ethylsulfonyl)benzyl)-2-(4-(trifluoromethyl)benzyl)-1H-benzo[d]imidazole-5-carboxamide] was run?
Answer: Its Ki is less than 100 nM.

Question: Which Ki [1] does the source give for CCS(=O)(=O)c1ccc(CNC(=O)c2ccc3c(c2)nc(Cc2ccc(C(F)(F)F)cc2)n3CC(C)C)nc1 [BE-43, N-((5-(ethylsulfonyl)pyridin-2-yl)methyl)-1-isobutyl-2-(4-(trifluoromethyl)benzyl)-1H-benzo[d]imidazole-5-carboxamide] here?
Answer: The Ki was less than 100 nM.

Question: With CCS(=O)(=O)c1ccc(CNC(=O)c2cc(Br)c3c(c2)nc(C[C@H]2CC[C@H](C(F)(F)F)CC2)n3C)cc1 [BE-58, 7-bromo-N-(4-(ethylsulfonyl)benzyl)-1-methyl-2-(((1r,4r)-4-(trifluoromethyl)cyclohexyl)methyl)-1H-benzo[d]imidazole-5-carboxamide] as the compound, how does the Ki [1] read?
Answer: Its Ki is 100 to 1000 nM.

Question: CCS(=O)(=O)c1ccc(CNC(=O)c2cc(Br)c3c(c2)nc(Cc2ccc(C(F)(F)F)cc2)n3C)cc1 [BE-59, 7-bromo-N-(4-(ethylsulfonyl)benzyl)-1-methyl-2-(4-(trifluoromethyl)benzyl)-1H-benzo[d]imidazole-5-carboxamide] was tested. Which Ki [1] did it give?
Answer: Its Ki is 100 to 1000 nM.

Question: For CCS(=O)(=O)c1ccc(CNC(=O)c2ccc3c(c2)nc(C(=O)C2CCC(C(F)(F)F)CC2)n3C2CC2)cc1 (stereo not drawn) [BE-64, 1-cyclopropyl-N-(4-(ethylsulfonyl)benzyl)-2-(4-(trifluoromethyl)cyclohexane-1-carbonyl)-1H-benzo[d]imidazole-5-carboxamide], which Ki [1] is on record?
Answer: Its Ki is less than 100 nM.

Question: For CCS(=O)(=O)c1ccc(CC(=O)Nc2ccc3c(c2)nc(Cc2ccc(C(F)(F)F)cc2)n3CC(C)C)cc1 [BE-68, 2-(4-(ethylsulfonyl)phenyl)-N-(1-isobutyl-2-(4-(trifluoromethyl)benzyl)-1H-benzo[d]imidazol-5-yl)acetamide], which Ki [1] is on record?
Answer: Its Ki is less than 100 nM.

Question: For CCn1c(Cc2ccc(OC(F)F)cc2)cc2cc(C(=O)N[C@@H](CO)c3ccc(S(=O)(=O)CC)cn3)ccc21 [IN-6, (R)-2-(4-(difluoromethoxy)benzyl)-1-ethyl-N-(1-(5-(ethylsulfonyl)pyridin-2-yl)-2-hydroxyethyl)-1H-indole-5-carboxamide], which Ki [1] is on record?
Answer: Its Ki is less than 100 nM.

Question: Which Ki [1] does the source give for CCn1c(Cc2cccc(OC(F)F)c2)cc2cc(C(=O)N[C@@H](CO)c3ccc(S(=O)(=O)CC)cn3)ccc21 [IN-7, (R)-2-(3-(difluoromethoxy)benzyl)-1-ethyl-N-(1-(5-(ethylsulfonyl)pyridin-2-yl)-2-hydroxyethyl)-1H-indole-5-carboxamide] here?
Answer: The Ki was less than 100 nM.
